Patent publication US20250230193A1, “CYCLIC COMPOUND HAVING SELECTIVE KRAS INHIBITORY EFFECT ON HRAS AND NRAS” (CHUGAI SEIYAKU KABUSHIKI KAISHA, priority 2022, published 2025)
*1 amine or outer side, *2 acyl side, *3 side chain or, on linkers, in order; H or OH if unused. Where a SMILES comes first, the peptide text is derived from it. Bridges are numbered along the chain shown (N, C = ends). [ ]: non-standard residue; d: D form. The star is where a group is joined. hPhe(3-Cl-4-CF3) = N[C@@H](CCc1ccc(C(F)(F)F)c(Cl)c1)C(=O)O; X37 = O=C([C@H](Cc1ccc(C(F)(F)F)cc1)N(CC1CCC1)[*:1])[*:2]; NMeGly(cPent) = CN[C@H](C(=O)O)C1CCCC1; NMeD = CN[C@@H](CC(=O)O)C(=O)O; NMeL = CN[C@@H](CC(C)C)C(=O)O; Morpholide = C1CN(*)CCO1; Ac5c = NC1(C(=O)O)CCCC1; Sar = CNCC(=O)O

Key:
[1] = molecular target: GDP-bound NRAS wild-type protein (Homo sapiens, UniProt P01111); assay: Binding to NRAS by surface plasmon resonance (SPR), Single Cycle Kinetics; settings: for NRAS/KRAS (ratio of KD value with respect to NRAS to KD value with respect to KRAS) / NRAS/KRAS (ratio of KD value for NRAS to KD value for KRAS): GDP-bound NRAS wild-type vs GDP-bound KRAS wild-type; for NRAS/KRAS (ratio of KD value with respect to GDP-bound NRAS wild-type protein to KD value with respect to KRAS): class symbols
Sequence of GDP-bound NRAS wild-type protein (P01111 whole entry): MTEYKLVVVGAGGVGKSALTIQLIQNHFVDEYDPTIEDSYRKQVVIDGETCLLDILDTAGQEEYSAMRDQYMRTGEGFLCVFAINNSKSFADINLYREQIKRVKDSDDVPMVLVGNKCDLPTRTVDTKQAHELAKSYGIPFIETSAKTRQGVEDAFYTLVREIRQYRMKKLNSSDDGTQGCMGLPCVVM

[2] = molecular target: GDP-bound HRAS wild-type protein (Homo sapiens, UniProt P01112); assay: Binding to HRAS by surface plasmon resonance (SPR), Single Cycle Kinetics; settings: for HRAS/KRAS (ratio of KD value with respect to HRAS to KD value with respect to KRAS) / HRAS/KRAS (ratio of KD value for HRAS to KD value for KRAS): GDP-bound HRAS wild-type vs GDP-bound KRAS wild-type; for HRAS/KRAS (ratio of KD value with respect to GDP-bound HRAS wild-type protein to KD value with respect to KRAS): class symbols
Sequence of GDP-bound HRAS wild-type protein (P01112 whole entry): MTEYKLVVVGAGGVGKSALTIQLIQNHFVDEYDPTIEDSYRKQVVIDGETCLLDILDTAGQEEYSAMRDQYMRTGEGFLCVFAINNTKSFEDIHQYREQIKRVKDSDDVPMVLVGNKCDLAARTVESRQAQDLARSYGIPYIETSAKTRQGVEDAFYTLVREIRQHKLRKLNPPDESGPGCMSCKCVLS

With `CC[C@H](C)[C@@H]1NC(=O)[C@H](CC(C)C)N(C)C(=O)C[C@@H](C(=O)N2CCOCC2)N(C)C(=O)[C@H](C2CCCC2)N(C)C(=O)C2(CCC2)NC(=O)[C@@H]2[C@H](O)CCN2C(=O)[C@H](CCc2cc(F)c(C(F)(F)F)c(F)c2)NC(=O)CN(C)C(=O)[C@H](Cc2ccc(C(F)(F)F)cc2)N2CCCC[C@@H](C2=O)N(C)C(=O)CN(C)C1=O` [PP0870] the “NRAS/KRAS (ratio of KD value with respect to NRAS to KD value with respect to KRAS)” value ([1]; KD ratio, SPR) was “B (a compound having 3 or more and less than 10 is denoted as B)” and the “HRAS/KRAS (ratio of KD value with respect to HRAS to KD value with respect to KRAS)” value ([2]; KD ratio, SPR) was “B (a compound having 3 or more and less than 10 is denoted as B)”.
`CCCOC[C@H]1C(=O)N[C@@H]([C@@H](C)CC)C(=O)N2CCC[C@H]2C(=O)N(C)[C@H]2C/C=C\CCN(C2=O)[C@@H](CC2CCC(F)(F)CC2)C(=O)N(C)CC(=O)N[C@@H](CCc2ccc(C(F)(F)F)c(OC)c2)C(=O)N2C[C@H](OCC)C[C@H]2C(=O)N(C)C2(CCC2)C(=O)N(C)[C@@H](C2CCCC2)C(=O)N(C)[C@H](C(=O)N(C)C)CC(=O)N1C` [PP2357] was tested, and the “NRAS/KRAS (ratio of KD value with respect to NRAS to KD value with respect to KRAS)” value ([1]; SPR) was “A (a compound having 10 or more and less than 20 is denoted as A)” and the “HRAS/KRAS (ratio of KD value with respect to HRAS to KD value with respect to KRAS)” value ([2]; SPR) was “B (a compound having 3 or more and less than 10 is denoted as B)”.
With `CC[C@H](C)[C@@H]1NC(=O)[C@H](CC(C)C)N(C)C(=O)C[C@@H](C(=O)N2CCOCC2)N(C)C(=O)[C@H](C2CCCC2)N(C)C(=O)C2(CCCC2)NC(=O)[C@@H]2CCCN2C(=O)[C@H](CCc2ccc(C(F)(F)F)c(Cl)c2)NC(=O)CN(C)C(=O)[C@H](Cc2ccc(C(F)(F)F)cc2)N(CC2CCC2)C(=O)CN(C)C(=O)CN(C)C1=O` [PP0123] ([NMeL]I[Sar][Sar][X37][Sar][hPhe(3-Cl-4-CF3)]P[Ac5c][NMeGly(cPent)][NMeD]-Morpholide; lactam N-11) the “NRAS/KRAS (ratio of KD for GDP-bound NRAS wild-type to KD for KRAS)” value ([1]; KD ratio NRAS/KRAS, SPR) was “B (a compound having 3 or more and less than 10 is denoted as B)” and the “HRAS/KRAS (ratio of KD for GDP-bound HRAS wild-type to KD for KRAS)” value ([2]; KD ratio HRAS/KRAS, SPR) was “C (A compound having a KD ratio of 0.1 or more and less than 3 is denoted as C)”.
For `CCCOC[C@H]1C(=O)N[C@@H]([C@@H](C)CC)C(=O)N(C)CC(=O)N(C)[C@H]2C/C=C\CCN(C2=O)[C@@H](Cc2ccc(C(F)(F)F)cc2)C(=O)N(C)CC(=O)N[C@@H](CCc2ccc(C(F)(F)F)c(OC)c2)C(=O)N2C[C@@H](C)C[C@H]2C(=O)NC2(CC(C)(C)C2)C(=O)N(C)[C@@H](C2CCCC2)C(=O)N(C)[C@H](C(=O)N(C)CC)CC(=O)N1C` [PP1995], the “NRAS/KRAS (ratio of KD value for NRAS to KD value for KRAS)” value ([1]; KD ratio, SPR) was “A (a compound having 10 or more and less than 20 is denoted as A)” and the “HRAS/KRAS (ratio of KD value for HRAS to KD value for KRAS)” value ([2]; KD ratio, SPR) was “B (a compound having 3 or more and less than 10 is denoted as B)”.
With `CCO[C@@H]1C[C@H]2C(=O)NC3(CC(C)(C)C3)C(=O)N(C)[C@@H](C(CC)CC)C(=O)N(C)[C@H](C(=O)N(C)C)CC(=O)N(C)[C@H]3CCC/C=C/c4ccc(cc4)C[C@@H](C(=O)N(C)CC(=O)N[C@@H](CCc4ccc(Cl)c(Cl)c4)C(=O)N2C1)N1CC/C=C\C[C@@H](C1=O)N(C)C(=O)CN(C)C(=O)[C@H]([C@@H](C)CC)NC3=O` [PP2580] the “NRAS/KRAS (ratio of KD value with respect to GDP-bound NRAS wild-type protein to KD value with respect to KRAS)” value ([1]; KD ratio NRAS/KRAS) was “AA (a compound having 20 or more is denoted as AA)” and the “HRAS/KRAS (ratio of KD value with respect to GDP-bound HRAS wild-type protein to KD value with respect to KRAS)” value ([2]; KD ratio HRAS/KRAS) was “A (a compound having 10 or more and less than 20 is denoted as A)”.
In the case of `CCO[C@@H]1C[C@H]2C(=O)N(C)C3(CCC3)C(=O)N(C)[C@@H](C3CCCC3)C(=O)N(C)[C@H](C(=O)N(C)C)CC(=O)N(C)[C@@H](C3CC3)C(=O)N[C@@H]([C@@H](C)CC)C(=O)N(C)CC(=O)N(C)[C@H]3C/C=C\CCN(C3=O)[C@@H](Cc3ccc(C)cc3)C(=O)N(C)CC(=O)N[C@@H](CCc3cc(F)c(C(F)(F)F)c(F)c3)C(=O)N2C1` [PP1783], the “NRAS/KRAS (ratio of KD value for NRAS to KD value for KRAS)” value ([1]; KD ratio, SPR) was “A (a compound having 10 or more and less than 20 is denoted as A)” and the “HRAS/KRAS (ratio of KD value for HRAS to KD value for KRAS)” value ([2]; KD ratio, SPR) was “B (a compound having 3 or more and less than 10 is denoted as B)”.
In the case of `CCO[C@@H]1C[C@H]2C(=O)NC3(CCC3)C(=O)N(C)[C@@H](C3CCCC3)C(=O)N(C)[C@H](C(=O)N(C)CC)CC(=O)N(C)[C@@H](CC(C)C)C(=O)N[C@@H]([C@@H](C)CC)C(=O)N(C)CC(=O)N(C)[C@H]3C/C=C\CCN(C3=O)[C@@H](Cc3ccc(C(F)(F)F)cc3)C(=O)N(C)CC(=O)N[C@@H](CCc3ccc(C(F)(F)F)c(Cl)c3)C(=O)N2C1` [PP2847], the “NRAS/KRAS (ratio of KD value with respect to GDP-bound NRAS wild-type protein to KD value with respect to KRAS)” value ([1]; KD ratio NRAS/KRAS) was “A (a compound having 10 or more and less than 20 is denoted as A)” and the “HRAS/KRAS (ratio of KD value with respect to GDP-bound HRAS wild-type protein to KD value with respect to KRAS)” value ([2]; KD ratio HRAS/KRAS) was “A (a compound having 10 or more and less than 20 is denoted as A)”.
